The target in assay [1] is T1, P2X2/P2X3 heterotrimeric receptor (Homo sapiens, UniProt P56373+Q9UBL9).
T1 sequence (Q9UBL9 whole entry): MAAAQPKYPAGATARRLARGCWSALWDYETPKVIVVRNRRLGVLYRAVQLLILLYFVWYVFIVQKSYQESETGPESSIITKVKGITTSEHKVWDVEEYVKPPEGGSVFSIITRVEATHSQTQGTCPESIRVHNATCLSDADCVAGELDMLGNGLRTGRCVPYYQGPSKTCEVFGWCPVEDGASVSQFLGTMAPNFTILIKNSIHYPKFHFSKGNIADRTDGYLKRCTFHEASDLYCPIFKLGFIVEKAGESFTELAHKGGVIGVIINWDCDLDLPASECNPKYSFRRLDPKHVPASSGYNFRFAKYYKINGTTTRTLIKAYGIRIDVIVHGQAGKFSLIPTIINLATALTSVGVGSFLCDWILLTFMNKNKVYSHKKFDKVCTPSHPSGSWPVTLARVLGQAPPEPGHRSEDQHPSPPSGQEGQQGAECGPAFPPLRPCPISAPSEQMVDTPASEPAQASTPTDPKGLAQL
T1 sequence (P56373 whole entry): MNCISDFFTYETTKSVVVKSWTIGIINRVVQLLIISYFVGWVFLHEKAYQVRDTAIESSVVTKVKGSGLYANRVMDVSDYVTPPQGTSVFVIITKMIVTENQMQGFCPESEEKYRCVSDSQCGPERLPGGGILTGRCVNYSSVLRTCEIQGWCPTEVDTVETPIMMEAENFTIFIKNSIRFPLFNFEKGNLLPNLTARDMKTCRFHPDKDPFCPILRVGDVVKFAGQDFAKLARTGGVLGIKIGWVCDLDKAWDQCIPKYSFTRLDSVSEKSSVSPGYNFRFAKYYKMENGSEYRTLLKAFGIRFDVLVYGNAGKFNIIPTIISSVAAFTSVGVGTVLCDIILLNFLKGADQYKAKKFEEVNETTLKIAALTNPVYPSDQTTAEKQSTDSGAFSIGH
Put plainly: Antagonist activity at human P2X2/P2X3 receptor expressed in human 1321N1C cells. The assay is classed as functional, cell-based.

Assay [2] addresses T2, P2X purinoceptor 3 (Rattus norvegicus, UniProt P49654).
T2 sequence (P49654 whole entry): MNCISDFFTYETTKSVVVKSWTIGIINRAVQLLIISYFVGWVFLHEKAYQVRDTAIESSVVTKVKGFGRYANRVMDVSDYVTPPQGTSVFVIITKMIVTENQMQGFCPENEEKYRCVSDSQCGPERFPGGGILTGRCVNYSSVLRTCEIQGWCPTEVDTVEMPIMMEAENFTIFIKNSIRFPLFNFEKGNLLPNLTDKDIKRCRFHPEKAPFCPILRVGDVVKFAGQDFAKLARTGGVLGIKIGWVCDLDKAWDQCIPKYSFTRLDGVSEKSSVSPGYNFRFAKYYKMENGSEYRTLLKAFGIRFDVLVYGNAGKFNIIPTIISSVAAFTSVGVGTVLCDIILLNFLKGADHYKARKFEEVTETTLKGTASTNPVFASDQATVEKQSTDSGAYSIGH
As to the kind of experiment: Antagonist activity at rat P2X3 receptor expressed in CHO cells. Format: functional, cell-based.

SMILES strings stand for the structures.

Here are results for 51 molecules from ChEMBL document CHEMBL1159093, “Discovery and optimization of RO-85, a novel drug-like, potent, and selective P2X3 receptor antagonist” (Bioorg Med Chem Lett, 2010).

On to `CC(CN1CCN(c2ncccn2)CC1)NC(=O)c1cc2c(-c3ccccc3)nn(C)c2s1` (stereo not given), for which the IC50 in assay [1] was more than 10 µM; in assay [2] it was 0.2 µM.

Regarding `Cc1c(C(=O)NC(C)CN2CCN(c3ncccn3)CC2)cc(-c2ccccc2)n1-c1ccccc1` (stereo not given), the 50% inhibitory concentration (IC50) is more than 10 µM in assay [1] and 2 µM in assay [2].

The molecule `CCCc1nc(-c2ccc(F)cc2)oc1C(=O)N(C)CCN1CCN(c2ncccn2)CC1` showed an IC50 in assay [2] of more than 10 µM.

In assay [2], `CC(CN1CCN(c2ncccn2)CC1)NC(=O)c1cc2c(-c3ccccc3)nn(-c3ccccc3)c2s1` (stereo not given) had a concentration for half-maximal inhibition (IC50) of more than 10 µM.

Take `CCCc1nc(-c2ccc(F)cc2)oc1C(=O)N[C@@H](C)CN1CCN(c2ncccn2)CC1`: the IC50 is more than 10 µM in assay [1] and 2 µM in assay [2].

Turning to `CCCc1nc(-c2ccc(F)cc2)oc1COC(C)CN1CCN(c2ncccn2)CC1` (stereo not given), the IC50 in assay [2] was more than 10 µM.

On to `Cc1nc(-c2ccccc2)oc1C(=O)NC(C)CN1CCN(c2ncccn2)CC1` (stereo not given), for which the IC50 in assay [1] is more than 10 µM; in assay [2], 5.01 µM.

As for `Cc1nn(-c2ccccc2)c2sc(C(=O)NC(C)CN3CCN(c4ncccn4)CC3)cc12` (stereo not given), inhibition in assay [2] was half-maximal at 10 µM (IC50).

Regarding `CCCc1nc(-c2ccc(F)cc2)oc1C(=O)N[C@H](C)CN1CCN(c2ncccn2)CC1`, the IC50 in assay [1] was more than 10 µM; in assay [2] it was 0.0501 µM.

Consider `CCCc1nc(-c2ccc(F)cc2)oc1C(=O)N[C@H](C)CN1CCN(c2cnccn2)CC1`, for which the half-inhibitory concentration (IC50) in assay [1] was more than 10 µM; in assay [2] it was 0.501 µM.

On to `CC(CN1CCN(c2ncccn2)CC1)NC(=O)c1nc(-c2ccccc2)oc1-c1ccccc1` (stereo not given), for which the half-inhibitory concentration (IC50) in assay [1] was more than 10 µM; in assay [2], 3.98 µM.

With `CC(CN1CCN(c2ncccn2)CC1)NC(=O)c1cccc(-c2ccc(F)cc2)c1` (stereo not given), the IC50 in assay [1] is more than 10 µM; in assay [2] it was 0.126 µM.

As for `CCCc1nc(-c2ccc(F)cc2)oc1C(=O)NC(C)CN1CCCN(c2ncccn2)CC1` (stereo not given), the concentration for half-maximal inhibition (IC50) in assay [2] was 2.51 µM.

In the case of `CCn1nc(-c2ccccc2)c2cc(C(=O)NC(C)CN3CCN(c4ncccn4)CC3)sc21` (stereo not given), the IC50 in assay [2] was 0.501 µM.

With `CC(CN1CCN(c2ncccn2)CC1)NC(=O)c1cc(-c2ccc(F)cc2)cc(-c2ccc(F)cc2)c1` (stereo not given), the IC50 is more than 10 µM in assay [1] and 0.398 µM in assay [2].

With `CCCc1nc(-c2ccc(F)cc2)oc1C(=O)NC(C)(C)CN1CCN(c2ncccn2)CC1`, the IC50 in assay [2] was more than 10 µM.

For the molecule `CC(CN1CCN(c2ncccn2)CC1)NC(=O)c1sc(-c2ccccc2)nc1-c1ccccc1` (stereo not given), the IC50 in assay [1] and in assay [2] was more than 10 µM throughout.

With `CCCc1nc(-c2ccc(F)cc2)oc1C(=O)NCCN1CCN(c2ncccn2)CC1`, the concentration for half-maximal inhibition (IC50) in assay [2] is more than 10 µM.

Regarding `CC(CN1CCN(c2ncccn2)CC1)NC(=O)c1cc(-c2ccccc2)oc1-c1ccccc1` (stereo not given), the IC50 was more than 10 µM in assay [1] and 2 µM in assay [2].

Regarding `CC(=O)N1CCN(CC(C)NC(=O)c2cc3c(-c4ccccc4F)nn(C)c3s2)CC1` (stereo not given), half-maximal inhibition in assay [2] (IC50) was put at 0.0398 µM.

Turning to `CCCc1nc(-c2ccc(F)cc2)oc1C(=O)N[C@H](C)CN1CCN(C(=O)OCC)CC1`, the IC50 in assay [1] and in assay [2] was more than 10 µM throughout.

For `CC(CN1CCN(c2ncccn2)CC1)NC(=O)c1cc(-c2ccccc2)nn1-c1ccccc1` (stereo not given), the 50% inhibitory concentration (IC50) in assay [1] is more than 10 µM; in assay [2], 1 µM.

As to `CCCc1nc(-c2ccc(F)cc2)oc1C(=O)N[C@H](C)CN1CCN(C(=O)c2ccco2)CC1`, the half-inhibitory concentration (IC50) is more than 10 µM in assay [1] and 2.51 µM in assay [2].

With `CC(CN1CCN(c2ncccn2)CC1)NC(=O)c1oc(-c2ccccc2)cc1-c1ccccc1` (stereo not given), the IC50 was more than 10 µM in assay [1] and 0.631 µM in assay [2].

In assay [2], `CC(=O)N1CCN(CC(C)NC(=O)c2cc3c(-c4ccccc4)nn(C)c3s2)CC1` (stereo not given) showed an IC50 of 0.1 µM.

For the molecule `CCCc1nc(-c2ccc(F)cc2)oc1C(=O)NC(C)CN1CCN(C(C)=S)CC1` (racemic), the half-maximal inhibitory concentration (IC50) was more than 10 µM in assay [1] and 0.1 µM in assay [2].

As to `CC(=O)N1CCN(CC(C)NC(=O)c2cc3c(-c4ccc(C)cc4)nn(C)c3s2)CC1` (stereo not given), in assay [2], half-maximal inhibition (IC50) was put at 0.0398 µM.

For `CCCc1nc(-c2ccc(F)cc2)oc1C(=O)N[C@H](C)CN1CCN(c2ccncc2)CC1`, the IC50 in assay [1] and in assay [2] was more than 10 µM each time.

With `CCCc1nc(-c2ccc(F)cc2)oc1C(=O)NC(C)CN1CCN(c2ccccn2)CC1` (racemic), the IC50 in assay [1] and in assay [2] was more than 10 µM throughout.

On to `CCCc1nc(-c2ccc(F)cc2)oc1C(=O)NC(C)CN1CCN(c2nccs2)CC1` (racemic), for which the IC50 in assay [1] is more than 10 µM; in assay [2] it was 0.631 µM.

`CC(CN1CCN(c2ncccn2)CC1)NC(=O)c1cc2c(-c3ccccc3)nn(C)c2o1` (stereo not given) had an IC50 in assay [2] of more than 10 µM.

With `CC(CN1CCN(c2ncccn2)CC1)NC(=O)c1cc(-c2ccccc2)n(-c2ccccc2)n1` (stereo not given), the concentration for half-maximal inhibition (IC50) in assay [1] was more than 10 µM; in assay [2] it was 1.26 µM.

With `CCCc1nc(-c2ccc(F)cc2)oc1C(=O)N[C@H](C)CN1CCN(C(=O)NC)CC1`, the half-maximal inhibitory concentration (IC50) in assay [1] and in assay [2] was more than 10 µM each time.

On to `CCCc1nc(-c2ccc(F)cc2)oc1CNC(C)CN1CCN(c2ncccn2)CC1` (stereo not given), for which the IC50 in assay [2] was more than 10 µM.

In assay [2], `CC(CN1CCN(c2ncccn2)CC1)N1Cc2c(c(-c3ccccc3)nn2-c2ccc(F)cc2)C1=O` (stereo not given) had an IC50 of more than 10 µM.

Turning to `CC(CN1CCN(c2ncccn2)CC1)NC(=O)c1nc(-c2ccccc2)cc(-c2ccccc2)n1` (stereo not given), the concentration for half-maximal inhibition (IC50) was more than 10 µM in assay [1] and 5.01 µM in assay [2].

For the molecule `CCCc1nc(-c2ccc(F)cc2)oc1C(=O)N[C@H](C)CN1CCN(C(=O)C2CC2)CC1`, the IC50 in assay [1] and in assay [2] was more than 10 µM each time.

On to `Cc1c(C(=O)NC(C)CN2CCN(c3ncccn3)CC2)c(-c2ccccc2)nn1-c1ccccc1` (stereo not given), for which the IC50 in assay [1] and in assay [2] was more than 10 µM each time.

As to `CC(CN1CCN(c2ncccn2)CC1)NC(=O)c1oc(-c2ccccc2)nc1-c1ccccc1` (stereo not given), the IC50 in assay [1] is more than 10 µM; in assay [2], 1.26 µM.

For the molecule `CC(CN1CCN(c2ncccn2)CC1)NC(=O)c1cc(-c2ccccc2)nc(-c2ccccc2)c1` (stereo not given), the IC50 was more than 10 µM in assay [1] and 1.26 µM in assay [2].

In turn, `Cc1ccccc1-c1nn(C)c2sc(C(=O)NC(C)CN3CCN(c4ncccn4)CC3)cc12` (stereo not given) had an IC50 in assay [2] of 2 µM.

Regarding `CC(CN1CCN(c2ncccn2)CC1)NC(=O)c1cn(-c2ccccc2)nc1-c1ccccc1` (stereo not given), the IC50 in assay [1] is more than 10 µM; in assay [2] it was 1 µM.

`CCCc1nc(-c2ccc(F)cc2)oc1C(=O)N[C@H](C)CN1CCN(C(C)=O)CC1`: the IC50 in assay [1] is more than 10 µM; in assay [2], 0.398 µM.

On to `CCCc1nc(-c2ccc(F)cc2)oc1C(=O)N[C@H](C)CN1CCN(C(N)=O)CC1`, for which the concentration for half-maximal inhibition (IC50) is more than 10 µM in assay [1] and 1 µM in assay [2].

As for `CCCc1cc(C(=O)NC(C)CN2CCN(c3ncccn3)CC2)cc(-c2ccc(F)cc2)c1` (stereo not given), the half-maximal inhibitory concentration (IC50) was more than 10 µM in assay [1] and 0.501 µM in assay [2].

On to `CCCc1nc(-c2ccc(F)cc2)oc1C(=O)N[C@H](C)CN1CCN(c2ccccn2)CC1`, for which the IC50 was more than 10 µM in assay [1] and 1.58 µM in assay [2].

`CC(CN1CCN(c2ncccn2)CC1)NC(=O)c1cc(Br)cc(-c2ccc(F)cc2)c1` (stereo not given): the concentration for half-maximal inhibition (IC50) in assay [1] is more than 10 µM; in assay [2], 0.501 µM.

`CCCc1nc(-c2ccc(F)cc2)oc1C(=O)N[C@H](C)CN1CCN(S(C)(=O)=O)CC1`: the IC50 in assay [1] and in assay [2] was more than 10 µM throughout.

`CC(CN1CCN(c2ncccn2)CC1)NC(=O)c1cc2c(-c3ccccc3F)nn(C)c2s1` (stereo not given) had an IC50 in assay [2] of 0.0631 µM.

Consider `CCCc1nc(-c2ccc(F)cc2)oc1C(=O)N[C@H](C)CN1CCN(c2ccncn2)CC1`, for which the IC50 is more than 10 µM in assay [1] and 1.26 µM in assay [2].

`CCCc1nc(-c2ccc(F)cc2)oc1C(=O)NC(CC)CN1CCN(c2ncccn2)CC1` (stereo not given) showed an IC50 in assay [2] of more than 10 µM.

The term IC50 denotes the concentration that gives 50% inhibition.
